Test results from patent US9701667B2, “Coumarin-based fluorogenic agents and uses thereof for specific protein labelling” (UNIVERSITY OF OTTAWA, priority 2014, dated 2017).
“Also recorded” adds a separate entry of the source.

Columns and labels:
[1] = system: MBP-dC10α; test: Fluorescence properties and fluorescence enhancement (FE) before/after labelling of model target protein; format: biochemical; settings: for Fluorescence enhancement (FE): after labelling with MBP-dC10, λex = 440 nm, λem = 485 nm, 50 mM HEPES pH 7.4; for fluorescence after the labelling reaction: after reaction with MBP-dC10α; for background (intrinsic) fluorescence before labelling / quenching: fluorogen without target protein
Protocol: For experiments described herein, maltose-binding protein (MBP) was chosen as a highly-soluble test protein and the dC10α tag was fused to its C-terminus (MBP-dC10α) as described previously (Guy, J. et al., Mol. Biosyst. 2010, 6, 976-987).
Emission spectra and fluorescence intensity measurements were recorded at 37° C. with a Synergy H4 Hybrid Multi-Mode Microplate Reader with excitation and emission monochromators set at 9 nm bandpass. The mixture of 100 μM solution of fluorogen (YCx) and 100 μM MBP-dC10 in 50 mM HEPES buffer (pH 7.4) with 5% DMSO was incubated at 37° C. in the dark for 12 hours, after which the fluorescence emission spectrum of a dilution (25 μM final) in 50 mM HEPES buffer with 5% DMSO was recorded. The emission spectra of the corresponding labelling reagent in same solution without MBP-dC10α were also recorded. The ratio of fluorescence intensity at maximum emission gave the fluorescence enhancement (FE) ratio.

[2] = Kinetic studies of consecutive thiol addition reactions with model thiol MPA; settings: for first thiol addition faster than second addition: ratio of first to second MPA addition rate; for k1 / k2: second order rate constant, 50 mM HEPES pH 7.4, 5% DMSO, 37° C.; for k1: first thiol addition of MPA; for k2: second thiol addition of MPA
Protocol: Kinetic studies were then performed for the thiol addition reactions of YC5 and YC9 with 3-mercaptopropionic acid (MPA) as a water-soluble, nucleophilic model thiol (Scheme 13). Reactions were run in the presence of a large excess of MPA, making them pseudo-first order in fluorogen. The resulting time-dependent increase in fluorescence was fit to a model for consecutive first order reactions, providing pseudo-first order rate constants for both addition steps. The concentration of MPA was then varied, allowing second order rate constants to be calculated for both steps.
where I is fluorescence intensity, and the fluorescence intensity is linearly proportional to the concentration, since the concentration of fluorogen used here is within the linear range. So IA=a*[A]; IB=b*[B]; IP=p*[P]; [A]0=2.5*10^−5. With this formula, there will be 5 parameters, but based on the nature of the reaction and the fluorescent properties of the compounds, the 5 parameters can be restrained as: p>b>a>0; k1>k2>0. Finally, the formula and the conditions were applied in Origin 6.0 to fit the curves by non-linear regression, yielding values for the kobs for each step.
Kinetic experiments were carried out at 37° C. using Synergy H4 Hybrid Multi-Mode Microplate Reader with excitation and emission monochromators 9 nm bandpass. Solutions with different MPA concentrations were prepared in 96-well plate and labelling reagent (YC5 or YC9) in DMSO was added immediately before recording. The final concentration of labelling reagent was 25 μM and the final concentrations of MPA were 0.875 mM, 1 mM, 1.125 mM or 1.25 mM in 50 mM HEPES buffer (pH 7.4) with 5% DMSO (FIG. 12). Samples were excited at 440 nm and fluorescence intensity was followed at 485 nm as a function of time. All the time-dependent fluorescence increase curves were fitted by non-linear regression according to the formula from the last section using Origin to get kobs. kobs was plotted against MPA concentrations to obtain a second order rate constant.

[3] = system: MBP-dC10α; test: Time-dependent fluorescence increase on reaction with test protein; format: biochemical; settings: for selectivity of labelling target protein over GSH: MBP-dC10 versus GSH; for reactivity with test protein MBP-dC10: 25 μM fluorogen, 25 μM MBP-dC10, 50 mM HEPES pH 7.4
Protocol: (§1) Reactivity was tested through the time-dependent fluorescence increase at 37° C. using Synergy H4 Hybrid Multi-Mode Microplate Reader with excitation and emission monochromators set to 9 nm bandpass. All reactions were prepared in 50 mM HEPES buffer (pH 7.4) with 5% DMSO. Solutions of MBP-dC10α or GSH were prepared in 96-well plates and labelling reagent (YCx) in DMSO was added immediately before recording. The final concentration of labelling reagent was 25 μM, the final concentration of MBP-dC10α was 25 μM and the final concentration of GSH was 50 μM or 1 mM in 50 mM HEPES buffer (pH 7.4) with 5% DMSO. Samples were excited at 440 nm and fluorescence intensity was followed at 485 nm as a function of time.

[4] = Time-dependent fluorescence increase on reaction with GSH; settings: for reaction with GSH: 50 mM HEPES pH 7.4; for reaction with low concentration of GSH / reaction with high concentration (large excess) of GSH: 25 μM fluorogen; for reaction with low concentration of GSH: 50 μM GSH; for reaction with high concentration (large excess) of GSH: 1 mM GSH
Protocol: as §1

[5] = system: cmyc-mNeptune-dC10α; test: Intracellular labelling of test protein in transfected cells (YC9); format: cell-based, human
Source text: The red fluorescent protein mNeptune was chosen as a target protein so that its intrinsic fluorescence would serve as a control for the transfection and expression of the target protein. The target sequence dC10α was cloned to its C-terminus and the cmyc epitope (which would ensure the protein was also at least partially directed to the nucleus) was cloned to its N-terminus. […] Furthermore, fluorescent labelling was most intense and nearly limited to cells (FIG. 11D) that expressed the target red fluorescent test protein (FIG. 11E).
HEK 293T cells were plated into 6-well plates equipped with 25 mm×25 mm coverslips and grown in DMEM supplemented with 10% FBS 16 h before transfection. Cells were transiently transfected with mNeptune-dC10α or pcDNA3.1 using lipofectamine 2000. Either 24 or 48 h after transfection, the cells were washed with complete DMEM and incubated with 25 μM YC9 in DMEM for 30 min at 37° C. The media with labelling reagent was removed and followed by 3 times washing over 3 h at 37° C. Cells were fixed after labelling for imaging on a Carl Zeiss Axiophot inverted microscope.

[6] = system: HEK293T cells; test: MTT cytotoxicity assay; format: cell-based, human; settings: 20 h incubation
Protocol: 3-(4,5-Dimethylthiazol-2-yl)-2,5-diphenyl tetrazolium bromide (MTT) is a yellow tetrazolium salt and can be reduced to formazan crystals, which are insoluble in aqueous solutions, by active mitochondria in living cells. The resulting intracellular purple formazan can be dissolved in Triton X100, and therefore quantified by measuring absorption of the solution.
Cells were seeded in a 96-well plate and incubated with 100 μL of culture medium with different amounts of the fluorogen YCx for 16 h. No fluorogen was added to the positive control and no cells were plated in the negative control. Portions of 25 μL of MTT solution (5 mg in 1 mL of Hanks' balanced salt solution) were added to the wells and the cells were further incubated at 37° C. for 4 h. Solubilization solutions (100 μL) were then added and incubated in 96-well plates at room temperature in the dark overnight. The absorption of each well was measured using a plate reader at a wavelength of 570 nm with 690 nm as a reference. Cell viability was calculated according to the following equation: Cell viability=(Awith fluorogen−Anegative control)/(Apositive control−Anegative control).

[7] = Aqueous solubility; format: physicochemical

Row | SMILES | Fluorescence enhancement (FE) [1] | background (intrinsic) fluorescence before labelling / quenching [1] | reaction with low concentration of GSH [4] | reaction with high concentration (large excess) of GSH [4] | further results
1 | CCN(CC)c1ccc2cc(C(=O)Nc3cc(N4C(=O)C=C(C)C4=O)cc(N4C(=O)C=C(C)C4=O)c3)c(=O)oc2c1 [YC5, N-(3,5-bis(3-methyl-2,5-dioxo-2,5-dihydro-1H-pyrrol-1-yl)phenyl)-7-(diethylamino)-2-oxo-2H-chromene-3-carboxamide] | 69 | negligible background fluorescence |  |  | fluorescence after the labelling reaction [1]: strong fluorescence; also recorded: strongly fluorescent; first thiol addition faster than second addition [2]: 7 times; k1 [2]: 1.208 ± 0.249 M⁻¹ s⁻¹; k2 [2]: 0.1571 ± 0.0510 M⁻¹ s⁻¹; selectivity of labelling target protein over GSH [3]: reacted faster with MBP-dC10α than with GSH; reaction with GSH [4]: still appreciable
2 | CCN(CC)c1ccc2cc(C(=O)Nc3cc(N4C(=O)C=C(C)C4=O)cc(N4C(=O)C=C(OC)C4=O)c3)c(=O)oc2c1 [YC9, 7-(Diethylamino)-N-(3-(3-methoxy-2,5-dioxo-2,5-dihydro-1H-pyrrol-1-yl)-5-(3-methyl-2,5-dioxo-2,5-dihydro-1H-pyrrol-1-yl)phenyl)-2-oxo-2H-chromene-3-carboxamide] | 62 | negligible background fluorescence | did not react | showed some signal | fluorescence after the labelling reaction [1]: strongly fluorescent; first thiol addition faster than second addition [2]: 63 times; k1 [2]: 2.480 ± 0.216 M⁻¹ s⁻¹; k2 [2]: 0.0388 ± 0.0133 M⁻¹ s⁻¹; reactivity with test protein MBP-dC10 [3]: still rapid; reaction with GSH [4]: completely suppressed; selectivity of labelling dC10α-tagged target protein in living cells ([5]; HEK293 cells transfected with cmyc-mNeptune-dC10α, 25 μM YC9, 30 min): high selectivity; background fluorescence in mock-transfected cells ([5]; cells transfected with empty (mock) vector, 25 μM YC9): minimal background fluorescence; melting point: 88.3 to 93.7 °C
3 | CCN(CC)c1ccc2cc(C(=O)Nc3cc(N4C(=O)C=C(C)C4=O)cc(N4C(=O)C=C(C(C)C)C4=O)c3)c(=O)oc2c1 [YC16] | 228 |  | did not react | showed some signal | 
4 | CCC1=CC(=O)N(c2cc(NC(=O)c3cc4ccc(N(CC)CC)cc4oc3=O)cc(N3C(=O)C=C(C)C3=O)c2)C1=O [YC15] | 226 |  | did not react | showed some signal | 
5 | CCN(CC)c1ccc2cc(C(=O)N3CCN(C(=O)c4cc(N5C(=O)C=C(C)C5=O)cc(N5C(=O)C=C(C)C5=O)c4)CC3)c(=O)oc2c1 [YC25, 1,1′-(5-(4-(7-(diethylamino)-2-oxo-2H-chromene-3-carbonyl)piperazine-1-carbonyl)-1,3-phenylene)bis(3-methyl-1H-pyrrole-2,5-dione)] |  | strong background fluorescence |  |  | 
6 | CCN(CC)c1ccc2cc(C(=O)Nc3cc(N4C(=O)C=C(C)C4=O)cc(N4C(=O)C=C(OC(C)C)C4=O)c3)c(=O)oc2c1 [YC19] | 189 |  | did not react | showed some signal | 
7 | COc1ccc2cc(C(=O)N3CCN(C(=O)c4cc(N5C(=O)C=C(C)C5=O)cc(N5C(=O)C=C(C)C5=O)c4)CC3)c(=O)oc2c1 [YC24, 1,1′-(5-(4-(7-methoxy-2-oxo-2H-chromene-3-carbonyl)piperazine-1-carbonyl)-1,3-phenylene)bis(3-methyl-1H-pyrrole-2,5-dione)] |  | quenched very efficiently |  |  | fluorescence after the labelling reaction [1]: weak
8 | COC(=O)CCN(CCC(=O)OC)c1ccc2cc(C(=O)Nc3cc(N4C(=O)C=C(OC)C4=O)cc(N4C(=O)C=C(OC)C4=O)c3)c(=O)oc2c1 [YC21M, Dimethyl 3,3′-((3-((3,5-bis(3-methoxy-2,5-dioxo-2,5-dihydro-1H-pyrrol-1-yl)phenyl)carbamoyl)-2-oxo-2H-chromen-7-yl)azanediyl)dipropanoate] |  |  |  |  | cytotoxicity (cell viability, MTT) [6]: neither showed any cytotoxicity up to 100 μM
9 | COc1ccc2cc(C(=O)Nc3cc(N4C(=O)C=C(C)C4=O)cc(N4C(=O)C=C(C)C4=O)c3)c(=O)oc2c1 [YC26, N-(3,5-bis(3-methyl-2,5-dioxo-2,5-dihydro-1H-pyrrol-1-yl)phenyl)-7-methoxy-2-oxo-2H-chromene-3-carboxamide] |  |  |  |  | aqueous solubility [7]: poor aqueous solubility
10 | CCN(CC)c1ccc2cc(C(=O)Nc3cc(N4C(=O)C=C(C)C4=O)cc(N4C(=O)C=C(Br)C4=O)c3)c(=O)oc2c1 [YC18] | 468 |  |  |  | reactivity with test protein MBP-dC10 [3]: much more reactive than other fluorogens; also recorded: labelled the protein most efficiently; selectivity of labelling target protein over GSH [3]: did not show much difference; also recorded: not as selectively as other fluorogens
11 | CCOC1=CC(=O)N(c2cc(NC(=O)c3cc4ccc(N(CC)CC)cc4oc3=O)cc(N3C(=O)C=C(C)C3=O)c2)C1=O [YC17] | 194 |  | did not react | showed some signal | 
